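Where inhibition never reached the appropriate level, the endpoint shown equals the highest concentration tested. Otherwise, values were interpolated linearly from a five-concentration, 48-hour dose response in 96-well plates. The concentration for 50% growth inhibition is given as GI50. The concentration for full growth arrest is given as TGI.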

Among the test systems are HCC-2998 colon; U251 CNS; CAKI-1 renal; OVCAR-3 ovarian; NCI-H522 lung; UO-31 renal; MOLT-4 leukemia; DU-145 prostate; OVCAR-8 ovarian; OVCAR-4 ovarian.
Assay in all cases: NCI tumour cell line growth inhibition, 48 h

With `COc1ccc(/C=C/c2c(C(=O)/C=C/c3ccc(C(F)(F)F)cc3)c(C)nc3ccccc23)cc1`, the GI50 in the experiment with HCC-2998 colon is 1510 nM; in the experiment with U251 CNS it was 1530 nM; in the experiment with CAKI-1 renal, 1130 nM; in the experiment on OVCAR-3 ovarian, 1640 nM; with NCI-H522 lung, 1670 nM; with UO-31 renal, 1110 nM. The GI50 with MOLT-4 leukemia is 1040 nM; in the experiment on DU-145 prostate, 1760 nM; in the experiment on OVCAR-8 ovarian, 2220 nM; with OVCAR-4 ovarian it was 1810 nM. For the same compound, the TGI with HCC-2998 colon is 3070 nM; in the experiment with U251 CNS, 3280 nM; with CAKI-1 renal it was 2560 nM; in the experiment with OVCAR-3 ovarian, 3480 nM; in the experiment on NCI-H522 lung, 5690 nM; in the experiment on UO-31 renal it was 2330 nM. Moreover, the TGI is above 100000 nM in the experiment with MOLT-4 leukemia, 3710 nM in the experiment with DU-145 prostate, above 100000 nM in the experiment on OVCAR-8 ovarian and 3670 nM with OVCAR-4 ovarian.

As to `CCN(CC)CCCC(C)Nc1cc(-c2cccc(OC(F)(F)F)c2)nc2ccc(N3CCCC3)cc12` (configuration not stated), the GI50 is 224 nM in the experiment on HCC-2998 colon; 47.3 nM in the experiment with U251 CNS; 42.2 nM in the experiment on CAKI-1 renal; 30.5 nM in the experiment with OVCAR-3 ovarian; 24.9 nM with NCI-H522 lung; 69.9 nM in the experiment with UO-31 renal. Also, the GI50 is 306 nM with MOLT-4 leukemia, 78.2 nM in the experiment on DU-145 prostate, 62.6 nM with OVCAR-8 ovarian and 483 nM with OVCAR-4 ovarian. Besides, the TGI in the experiment with HCC-2998 colon came out at 2980 nM; in the experiment with U251 CNS, 21900 nM; with CAKI-1 renal it was 31500 nM; in the experiment with OVCAR-3 ovarian, 382 nM; with NCI-H522 lung, 500 nM; with UO-31 renal it was 44300 nM. For the same compound, the TGI in the experiment on MOLT-4 leukemia is above 100000 nM; with DU-145 prostate it was 13600 nM; in the experiment on OVCAR-8 ovarian it was 34300 nM; in the experiment on OVCAR-4 ovarian, above 100000 nM.

With `S=C1Cc2c(-c3ccc(Br)cc3)cc(-c3ccccc3)nc2-c2ccccc2N1`, the TGI with HCC-2998 colon is 11300 nM; in the experiment with U251 CNS, 2580 nM; in the experiment with CAKI-1 renal it was 3650 nM; in the experiment on OVCAR-3 ovarian it was 6930 nM; in the experiment with NCI-H522 lung it was 8040 nM; with UO-31 renal, 4770 nM. For the same compound, the TGI in the experiment with MOLT-4 leukemia stood at 72000 nM; in the experiment on DU-145 prostate it was 10300 nM; with OVCAR-8 ovarian, 3020 nM; in the experiment on OVCAR-4 ovarian, 1430 nM.

Take `O=C(NCCCc1cn[nH]c1)c1ccc(-c2ccncc2)c(C#Cc2ccc(F)cc2)c1`: the TGI with HCC-2998 colon was 26100 nM; in the experiment with U251 CNS, above 100000 nM; in the experiment on CAKI-1 renal it was above 100000 nM; with OVCAR-3 ovarian, above 100000 nM; with NCI-H522 lung it was 53200 nM; in the experiment on UO-31 renal, above 67200 nM. For the same compound, the TGI with MOLT-4 leukemia is above 57000 nM; with DU-145 prostate, above 100000 nM; in the experiment on OVCAR-8 ovarian, above 100000 nM; in the experiment on OVCAR-4 ovarian, above 100000 nM. Moreover, the GI50 is 243 nM in the experiment on U251 CNS; 6920 nM in the experiment on CAKI-1 renal; 6270 nM in the experiment with OVCAR-3 ovarian; below 40.6 nM in the experiment with NCI-H522 lung; 3400 nM with UO-31 renal; 1020 nM in the experiment on MOLT-4 leukemia. Also, the values for the GI50 in the experiment with DU-145 prostate, in the experiment with OVCAR-8 ovarian and in the experiment with OVCAR-4 ovarian were below 10 nM, below 10 nM and 11600 nM, respectively.

With `C#Cc1cccc(Nc2nc(Cl)nc3cc(NC(=O)CCl)ccc23)c1`, the GI50 with HCC-2998 colon was 700 nM; in the experiment with U251 CNS it was 526 nM; in the experiment on CAKI-1 renal it was 1850 nM; in the experiment on OVCAR-3 ovarian, 470 nM; in the experiment on NCI-H522 lung, 465 nM; in the experiment on UO-31 renal, 823 nM. The GI50 is 564 nM with MOLT-4 leukemia, 806 nM in the experiment with DU-145 prostate, 754 nM in the experiment on OVCAR-8 ovarian and 847 nM in the experiment with OVCAR-4 ovarian. The TGI stood at 2020 nM in the experiment on HCC-2998 colon; 1140 nM with U251 CNS; 5170 nM in the experiment with CAKI-1 renal; 984 nM with OVCAR-3 ovarian; 897 nM with NCI-H522 lung; 3150 nM in the experiment with UO-31 renal. Also, the TGI in the experiment with MOLT-4 leukemia came out at 1640 nM; with DU-145 prostate it was 2800 nM; in the experiment on OVCAR-8 ovarian, 2650 nM; in the experiment on OVCAR-4 ovarian, 2690 nM.

`CC(C)N(Cc1ccc(CN(C(=O)CCl)C(C)C)cc1)C(=O)CCl`: the GI50 in the experiment with HCC-2998 colon is 2000 nM; in the experiment with U251 CNS, 1770 nM; with CAKI-1 renal, 1770 nM; with OVCAR-3 ovarian it was 1690 nM; with NCI-H522 lung, 156 nM; with UO-31 renal, 1760 nM. For the same compound, the GI50 is 2330 nM in the experiment on MOLT-4 leukemia, 3230 nM in the experiment on DU-145 prostate, 2080 nM in the experiment on OVCAR-8 ovarian and 1380 nM in the experiment on OVCAR-4 ovarian. The TGI was 3940 nM in the experiment on HCC-2998 colon; 3320 nM with U251 CNS; 3390 nM in the experiment with CAKI-1 renal; 3220 nM with OVCAR-3 ovarian; 342 nM in the experiment on NCI-H522 lung; 3210 nM in the experiment on UO-31 renal. Moreover, the TGI with MOLT-4 leukemia came to 8130 nM; in the experiment with DU-145 prostate, 12400 nM; in the experiment with OVCAR-8 ovarian, 6430 nM; with OVCAR-4 ovarian, 3630 nM.

`CS(=O)(=O)Nc1cccc(-c2ccc3ncnc(Nc4ccc(F)c(Cl)c4)c3c2)c1`: the GI50 in the experiment on HCC-2998 colon is 1940 nM; with U251 CNS, 1550 nM; with CAKI-1 renal, 447 nM; in the experiment with OVCAR-3 ovarian, 1600 nM; in the experiment with NCI-H522 lung, 1040 nM; in the experiment on UO-31 renal it was 706 nM. The GI50 in the experiment on MOLT-4 leukemia is 1800 nM; in the experiment with DU-145 prostate, 1290 nM; in the experiment on OVCAR-8 ovarian, 2230 nM; in the experiment with OVCAR-4 ovarian it was 2420 nM. The TGI with HCC-2998 colon is 3840 nM; in the experiment on U251 CNS, 3340 nM; in the experiment with CAKI-1 renal it was 19200 nM; in the experiment on OVCAR-3 ovarian it was 6270 nM; with NCI-H522 lung, 3130 nM; in the experiment with UO-31 renal, 3100 nM. The TGI is 12400 nM in the experiment on MOLT-4 leukemia, 13800 nM in the experiment on DU-145 prostate, 8530 nM in the experiment on OVCAR-8 ovarian and above 30600 nM in the experiment on OVCAR-4 ovarian.

Consider `COc1cc(OC)cc(C2C3=C(COC3=O)Nc3cc(OC)ccc32)c1` (configuration not stated), for which the GI50 with HCC-2998 colon was below 10 nM; with U251 CNS it was below 10 nM; in the experiment with CAKI-1 renal, below 10 nM; with OVCAR-3 ovarian, below 10 nM; with NCI-H522 lung, below 10 nM; in the experiment with UO-31 renal, 38.7 nM. Moreover, the GI50 with MOLT-4 leukemia was below 10 nM; in the experiment with DU-145 prostate, below 10 nM; with OVCAR-8 ovarian, below 14.3 nM; in the experiment on OVCAR-4 ovarian, below 10 nM. The TGI in the experiment with U251 CNS is above 43800 nM; in the experiment on CAKI-1 renal it was above 100000 nM; with OVCAR-3 ovarian, below 10 nM; in the experiment on NCI-H522 lung, 836 nM; in the experiment with UO-31 renal it was above 67700 nM; in the experiment with DU-145 prostate, 48.6 nM. In addition, the TGI in the experiment on OVCAR-8 ovarian was above 37500 nM; with OVCAR-4 ovarian, 37600 nM.
